The source of these data is publication PMC9784828, “Antimicrobial Activity of Peptide-Coupled Antisense Peptide Nucleic Acids in Streptococcus pneumoniae” (Microbiology Spectrum, 2022).

This assay relates to G. mellonella larvae infected with S. pneumoniae TIGR4. As to the kind of experiment: G. mellonella infection model, bacterial load. It is filed as in vivo, Galleria mellonella. The following applies: 10 nmol CPP-PNA/larva; 24 h postinfection; n = 4 larvae per group, three experiments. The protocol: To establish the antibacterial effect of PNAs in the invertebrate infection model, we assessed the bacterial loads in infected larvae (Fig. 6). Larvae were infected and subsequently treated with NaCl (mock), 10 nmol CPP-PNA, or levofloxacin (positive control), respectively. From each group, four larvae were homogenized at 24 h postinfection. CFU/larva were determined following serial dilutions of the suspension and plating on selective medium. Treatment with (RXR)4XB-anti-gyrA caused a log CFU reduction of 1 compared to that in the mock-treated larvae. The addition of 1 or 10 μg levofloxacin led to a log CFU reduction of 2 or 6, respectively.
For determination of bacterial load, larvae were infected and subsequently treated with NaCl (mock), CPP-PNAs, or levofloxacin (positive control). At 24 h after infection, larvae were homogenized. Following serial dilution, the suspension was plated on selective medium (BD Columbia CNA Agar with 5% sheep blood; Becton Dickinson GmbH, Heidelberg, Germany). Agar plates were incubated overnight at 37°C, 5% CO2. CFU/larva was determined by visual inspection. Colony identity was verified on a random basis by colony PCR using ply-specific primers.

On to “RXRRXRRXRRXRXB-eg-tgcattaata [(RXR)4XB-anti-gyrA PNA, (RXR)4XB peptide coupled to antisense PNA against gyrA]”, for which the “log CFU reduction of bacterial load compared to mock-treated larvae” value turned out to be 1.
